Assay results: ChEMBL document CHEMBL2380255, “Dual targeting of adenosine A(2A) receptors and monoamine oxidase B by 4H-3,1-benzothiazin-4-ones” (J Med Chem, 2013)

Legend:
[1] = Selectivity ratio of IC50 for MAO-B in mitochondria-enriched Sprague-Dawley rat liver fractions to IC50 for recombinant human MAO-B
[2] = target: T1, Amine oxidase [flavin-containing] B (Rattus norvegicus, UniProt P19643); test: Inhibition of MAO-B in mitochondria-enriched Sprague-Dawley rat liver fractions using p-tyramine as substrate incubated for 30 mins prior to substrate addition measured for 45 mins by amplex red reagent-based microplate fluorescence reader analysis
T1 sequence (P19643 whole entry): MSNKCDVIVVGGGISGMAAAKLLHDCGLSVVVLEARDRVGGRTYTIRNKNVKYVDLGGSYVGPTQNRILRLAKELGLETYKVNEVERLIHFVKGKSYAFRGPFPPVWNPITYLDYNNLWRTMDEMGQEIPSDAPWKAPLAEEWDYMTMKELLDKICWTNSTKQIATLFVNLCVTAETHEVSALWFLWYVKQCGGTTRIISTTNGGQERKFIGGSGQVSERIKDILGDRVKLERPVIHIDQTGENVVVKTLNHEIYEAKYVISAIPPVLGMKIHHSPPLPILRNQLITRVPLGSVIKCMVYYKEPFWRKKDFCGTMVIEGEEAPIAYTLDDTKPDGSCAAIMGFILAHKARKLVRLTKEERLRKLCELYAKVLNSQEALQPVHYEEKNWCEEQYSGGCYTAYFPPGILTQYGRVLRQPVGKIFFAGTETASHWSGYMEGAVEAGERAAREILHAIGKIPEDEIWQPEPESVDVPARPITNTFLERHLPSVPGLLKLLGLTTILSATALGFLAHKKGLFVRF

[3] = target: T2, Amine oxidase [flavin-containing] B (Homo sapiens, UniProt P27338); test: Inhibition of recombinant human MAO-B expressed in baculovirus-infected insect cells using p-tyramine as substrate incubated for 30 mins prior to substrate addition measured for 45 mins by amplex red reagent-based microplate fluorescence reader analysis; assay type: cell-based
T2 sequence (P27338 whole entry): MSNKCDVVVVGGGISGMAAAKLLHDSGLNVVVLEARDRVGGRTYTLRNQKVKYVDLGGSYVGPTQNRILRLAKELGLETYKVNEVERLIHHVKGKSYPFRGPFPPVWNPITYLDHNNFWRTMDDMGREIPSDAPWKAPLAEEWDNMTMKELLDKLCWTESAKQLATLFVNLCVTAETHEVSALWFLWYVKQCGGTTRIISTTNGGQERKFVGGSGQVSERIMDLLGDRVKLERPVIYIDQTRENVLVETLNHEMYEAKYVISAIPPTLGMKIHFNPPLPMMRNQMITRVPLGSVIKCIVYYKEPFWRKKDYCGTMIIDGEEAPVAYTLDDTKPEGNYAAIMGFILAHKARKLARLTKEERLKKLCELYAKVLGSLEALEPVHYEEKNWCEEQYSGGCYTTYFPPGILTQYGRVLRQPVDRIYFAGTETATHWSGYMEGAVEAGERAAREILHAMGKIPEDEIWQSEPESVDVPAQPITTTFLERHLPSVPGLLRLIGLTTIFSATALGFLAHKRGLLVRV

Adenosine receptor A3 = target: T3, Adenosine receptor A3 (Homo sapiens, UniProt P0DMS8); test: Displacement of [3H]PSB-11 from human recombinant adenosine A3 receptor expressed in CHO cells after 60 mins by liquid scintillation counting analysis; assay type: cell-based
T3 sequence (P0DMS8 whole entry): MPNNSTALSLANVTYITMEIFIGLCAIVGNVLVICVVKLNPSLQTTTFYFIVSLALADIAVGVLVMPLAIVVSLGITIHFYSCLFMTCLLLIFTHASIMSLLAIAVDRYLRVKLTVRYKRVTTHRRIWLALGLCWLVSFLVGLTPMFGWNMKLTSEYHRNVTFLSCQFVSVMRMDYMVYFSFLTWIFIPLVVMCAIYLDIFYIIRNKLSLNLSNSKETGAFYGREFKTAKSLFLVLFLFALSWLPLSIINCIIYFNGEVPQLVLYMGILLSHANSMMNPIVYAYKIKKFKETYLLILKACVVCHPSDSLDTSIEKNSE

Adenosine receptor A2b = target: T4, Adenosine receptor A2b (Homo sapiens, UniProt P29275); test: Displacement of [3H]PSB-603 from human recombinant adenosine A2B receptor expressed in CHO cells after 75 mins by liquid scintillation counting analysis; assay type: cell-based
T4 sequence (P29275 whole entry): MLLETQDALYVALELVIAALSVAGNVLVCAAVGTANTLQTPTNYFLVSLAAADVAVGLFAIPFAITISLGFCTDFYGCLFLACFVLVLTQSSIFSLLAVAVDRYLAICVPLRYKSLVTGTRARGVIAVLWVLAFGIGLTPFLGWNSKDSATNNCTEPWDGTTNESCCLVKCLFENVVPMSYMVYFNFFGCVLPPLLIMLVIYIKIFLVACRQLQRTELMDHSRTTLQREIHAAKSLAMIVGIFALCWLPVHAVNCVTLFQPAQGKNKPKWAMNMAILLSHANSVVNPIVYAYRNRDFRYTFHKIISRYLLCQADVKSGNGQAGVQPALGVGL

Adenosine receptor A1 [4] = target: T5, Adenosine receptor A1 (Homo sapiens, UniProt P30542); test: Displacement of [3H]CCPA from human recombinant adenosine A1 receptor expressed in CHO cells after 90 mins by liquid scintillation counting analysis; assay type: cell-based
T5 sequence (P30542 whole entry): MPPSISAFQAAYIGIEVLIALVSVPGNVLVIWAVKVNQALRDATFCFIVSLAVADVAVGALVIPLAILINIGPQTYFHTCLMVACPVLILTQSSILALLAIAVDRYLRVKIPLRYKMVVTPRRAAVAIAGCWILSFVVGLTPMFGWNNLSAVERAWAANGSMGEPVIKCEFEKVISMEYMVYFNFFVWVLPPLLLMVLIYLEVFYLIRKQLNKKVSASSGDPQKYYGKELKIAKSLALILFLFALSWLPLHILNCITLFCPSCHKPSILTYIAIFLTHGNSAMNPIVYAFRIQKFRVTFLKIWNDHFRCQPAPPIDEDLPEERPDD

Adenosine receptor A2a [5] = target: Adenosine receptor A2a (Rattus norvegicus, UniProt P30543); test: Displacement of [3H]MSX2 from adenosine A2A receptor in rat brain striatal membranes after 30 mins by liquid scintillation counting analysis; assay type: cell membranes, Membrane
Adenosine receptor A1 [6] = target: T6, Adenosine receptor A1 (Rattus norvegicus, UniProt P25099); test: Displacement of [3H]CCPA from adenosine A1 receptor in rat brain cortical membranes after 90 mins by liquid scintillation counting analysis; assay type: cell membranes, Membrane
T6 sequence (P25099 whole entry): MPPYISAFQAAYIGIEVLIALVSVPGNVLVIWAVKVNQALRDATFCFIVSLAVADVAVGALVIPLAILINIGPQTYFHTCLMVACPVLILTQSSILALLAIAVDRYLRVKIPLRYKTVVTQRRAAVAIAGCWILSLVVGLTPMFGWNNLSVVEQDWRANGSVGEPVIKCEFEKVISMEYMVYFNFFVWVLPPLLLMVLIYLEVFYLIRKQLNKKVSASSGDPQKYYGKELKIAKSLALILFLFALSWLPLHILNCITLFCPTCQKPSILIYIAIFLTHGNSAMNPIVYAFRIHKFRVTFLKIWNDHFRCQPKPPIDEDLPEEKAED

Adenosine receptor A2a [7] = target: Adenosine receptor A2a (Homo sapiens, UniProt P29274); test: Displacement of [3H]MSX2 from human recombinant adenosine A2A receptor expressed in CHO cells after 30 mins by liquid scintillation counting analysis; assay type: cell-based
Sequence of Adenosine receptor A2a (Homo sapiens, UniProt P29274) (P29274 whole entry): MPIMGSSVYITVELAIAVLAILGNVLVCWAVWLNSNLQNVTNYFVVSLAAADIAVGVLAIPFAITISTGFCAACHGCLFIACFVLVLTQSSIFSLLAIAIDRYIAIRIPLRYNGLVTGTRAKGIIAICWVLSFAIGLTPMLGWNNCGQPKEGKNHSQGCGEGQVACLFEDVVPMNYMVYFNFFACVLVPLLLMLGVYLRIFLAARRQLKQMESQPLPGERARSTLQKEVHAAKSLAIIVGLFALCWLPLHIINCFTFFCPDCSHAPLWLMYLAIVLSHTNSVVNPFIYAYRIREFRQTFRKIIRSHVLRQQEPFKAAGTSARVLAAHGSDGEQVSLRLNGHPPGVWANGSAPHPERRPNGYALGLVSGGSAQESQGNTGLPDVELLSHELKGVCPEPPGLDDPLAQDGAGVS

Sequence of Adenosine receptor A2a (Rattus norvegicus, UniProt P30543) (P30543 whole entry): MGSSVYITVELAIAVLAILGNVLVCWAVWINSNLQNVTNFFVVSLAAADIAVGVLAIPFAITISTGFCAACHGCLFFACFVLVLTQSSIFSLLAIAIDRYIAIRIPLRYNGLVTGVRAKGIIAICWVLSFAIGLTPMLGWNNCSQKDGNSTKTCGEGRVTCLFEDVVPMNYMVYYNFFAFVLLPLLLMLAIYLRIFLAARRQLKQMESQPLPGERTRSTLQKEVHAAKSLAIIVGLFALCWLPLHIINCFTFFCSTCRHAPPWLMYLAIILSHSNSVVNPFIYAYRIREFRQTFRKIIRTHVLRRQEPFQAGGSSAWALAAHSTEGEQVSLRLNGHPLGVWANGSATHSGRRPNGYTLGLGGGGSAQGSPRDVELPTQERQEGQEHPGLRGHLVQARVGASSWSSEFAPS

## O=C(Nc1nc2ccccc2c(=O)s1)c1ccccc1
[1]
  Ratio IC50: 1.4
[2]
  IC50: > 10000 nM

## O=C(CCCc1cccc(Cl)c1)Nc1nc2ccccc2c(=O)s1
[1]
  Ratio IC50: 1.4
[3]
  IC50: > 1000 nM
[2]
  IC50: 6880 nM
Adenosine receptor A3
  Ki: > 1000 nM
Adenosine receptor A2b
  Ki: ≥ 1000 nM
Adenosine receptor A1 [4]
  Ki: > 10000 nM
Adenosine receptor A2a [5]
  Ki: > 10000 nM
Adenosine receptor A1 [6]
  Ki: 898 nM

## O=C(CCCc1ccccc1)Nc1nc2ccsc2c(=O)s1
[1]
  Ratio IC50: 1.4
[3]
  IC50: 206 nM
[2]
  IC50: 298 nM
Adenosine receptor A3
  Ki: > 1000 nM
Adenosine receptor A2b
  Ki: 547 nM
Adenosine receptor A2a [5]
  Ki: > 10000 nM
Adenosine receptor A1 [6]
  Ki: ≥ 10000 nM

## O=C(Nc1nc2ccccc2c(=O)s1)c1ccc(C(=O)N2CCN(Cc3cccc(Cl)c3)CC2)cc1
[1]
  Ratio IC50: 1.4
[3]
  IC50: > 10000 nM
Adenosine receptor A3
  Ki: > 1000 nM
Adenosine receptor A2b
  Ki: > 1000 nM
Adenosine receptor A2a [7]
  Ki: 58.3 nM
Adenosine receptor A1 [4]
  Ki: > 1000 nM
Adenosine receptor A2a [5]
  Ki: 84.7 nM

## O=C(CCCc1ccccc1)Nc1nc2cc(Cl)ccc2c(=O)s1
[1]
  Ratio IC50: 1.4
[3]
  IC50: 76.4 nM
[2]
  IC50: 1220 nM
Adenosine receptor A3
  Ki: 91.6 nM
Adenosine receptor A2b
  Ki: > 1000 nM
Adenosine receptor A1 [4]
  Ki: 785 nM
Adenosine receptor A2a [5]
  Ki: ≥ 10000 nM
Adenosine receptor A1 [6]
  Ki: 64.4 nM

## COc1cccc(C#CC(=O)Nc2nc3ccccc3c(=O)s2)c1
[1]
  Ratio IC50: 1.4
[3]
  IC50: 43.7 nM
[2]
  IC50: 73.9 nM
Adenosine receptor A3
  Ki: > 1000 nM
Adenosine receptor A2b
  Ki: > 1000 nM
Adenosine receptor A2a [7]
  Ki: ≥ 1000 nM
Adenosine receptor A2a [5]
  Ki: 1720 nM
Adenosine receptor A1 [6]
  Ki: > 10000 nM

## O=C(CCCc1ccc(Cl)c(Cl)c1)Nc1nc2ccccc2c(=O)s1
[3]
  IC50: 3440 nM
[2]
  IC50: 3300 nM
Adenosine receptor A3
  Ki: > 1000 nM
Adenosine receptor A2b
  Ki: > 1000 nM
Adenosine receptor A2a [5]
  Ki: > 10000 nM
Adenosine receptor A1 [6]
  Ki: > 1500 nM

## Cc1sc2nc(NC(=O)CCCc3ccccc3)sc(=O)c2c1C
[1]
  Ratio IC50: 1.4
[3]
  IC50: 9.8 nM
[2]
  IC50: 26.6 nM
Adenosine receptor A3
  Ki: > 1000 nM
Adenosine receptor A2b
  Ki: > 1000 nM
Adenosine receptor A2a [5]
  Ki: > 10000 nM
Adenosine receptor A1 [6]
  Ki: > 10000 nM

## O=C(/C=C/c1cccc(Cl)c1)Nc1nc2ccccc2c(=O)s1
[1]
  Ratio IC50: 1.4
[3]
  IC50: 93.3 nM
[2]
  IC50: 815 nM
Adenosine receptor A3
  Ki: > 1000 nM
Adenosine receptor A2b
  Ki: > 1000 nM
Adenosine receptor A2a [7]
  Ki: > 1000 nM
Adenosine receptor A2a [5]
  Ki: > 10000 nM
Adenosine receptor A1 [6]
  Ki: ≥ 10000 nM

## O=C(CCc1ccc(Cl)c(Cl)c1)Nc1nc2ccccc2c(=O)s1
[1]
  Ratio IC50: 1.4
[3]
  IC50: > 10000 nM
[2]
  IC50: > 10000 nM
Adenosine receptor A3
  Ki: > 1000 nM
Adenosine receptor A2b
  Ki: > 1000 nM
Adenosine receptor A2a [5]
  Ki: > 10000 nM
Adenosine receptor A1 [6]
  Ki: > 1500 nM

## O=C(CCCc1ccccc1)Nc1nc2ccc(Br)cc2c(=O)s1
[1]
  Ratio IC50: 1.4
[3]
  IC50: > 10000 nM
[2]
  IC50: > 10000 nM
Adenosine receptor A3
  Ki: > 1000 nM
Adenosine receptor A2b
  Ki: > 1000 nM
Adenosine receptor A2a [5]
  Ki: > 10000 nM
Adenosine receptor A1 [6]
  Ki: > 10000 nM

## O=C(C/C=C/c1ccc(Cl)c(Cl)c1)Nc1nc2ccccc2c(=O)s1
[3]
  IC50: > 10000 nM
[2]
  IC50: 4640 nM
Adenosine receptor A3
  Ki: > 1000 nM
Adenosine receptor A2b
  Ki: > 1000 nM
Adenosine receptor A2a [5]
  Ki: > 1000 nM
Adenosine receptor A1 [6]
  Ki: ≥ 1500 nM

## O=C(CCCc1ccccc1)Nc1nc2ccc(Cl)cc2c(=O)s1
[1]
  Ratio IC50: 1.4
[3]
  IC50: > 10000 nM
[2]
  IC50: > 10000 nM
Adenosine receptor A3
  Ki: > 1000 nM
Adenosine receptor A2b
  Ki: > 1000 nM
Adenosine receptor A2a [5]
  Ki: > 10000 nM
Adenosine receptor A1 [6]
  Ki: > 10000 nM

## CN(C(=O)CCCc1ccccc1)c1nc2ccccc2c(=O)s1
[1]
  Ratio IC50: 1.4
[3]
  IC50: 53.1 nM
Adenosine receptor A3
  Ki: > 1000 nM
Adenosine receptor A2b
  Ki: > 1000 nM
Adenosine receptor A2a [7]
  Ki: > 10000 nM
Adenosine receptor A2a [5]
  Ki: > 10000 nM
Adenosine receptor A1 [6]
  Ki: > 10000 nM

## O=C(CCc1ccccc1Br)Nc1nc2ccccc2c(=O)s1
[1]
  Ratio IC50: 31
[3]
  IC50: 2.09 nM
[2]
  IC50: 64 nM
Adenosine receptor A3
  Ki: > 1000 nM
Adenosine receptor A2b
  Ki: > 1000 nM
Adenosine receptor A2a [5]
  Ki: > 10000 nM
Adenosine receptor A1 [6]
  Ki: > 10000 nM

## O=C(Nc1nc2ccccc2c(=O)s1)c1ccc(C(=O)N2CCN(Cc3ccccc3)CC2)cc1
[1]
  Ratio IC50: 1.4
[3]
  IC50: > 10000 nM

## O=C(CCc1ccccc1F)Nc1nc2ccccc2c(=O)s1
[1]
  Ratio IC50: 65
[3]
  IC50: 11.2 nM
[2]
  IC50: 725 nM
Adenosine receptor A3
  Ki: ≥ 1000 nM
Adenosine receptor A2b
  Ki: 801 nM
Adenosine receptor A2a [5]
  Ki: 2190 nM
Adenosine receptor A1 [6]
  Ki: > 10000 nM

## Cc1ccc2nc(NC(=O)CCCc3ccccc3)sc(=O)c2c1
[1]
  Ratio IC50: 1.4
[3]
  IC50: 94 nM
[2]
  IC50: 325 nM
Adenosine receptor A3
  Ki: 147 nM
Adenosine receptor A2b
  Ki: 408 nM
Adenosine receptor A1 [4]
  Ki: 1000 nM
Adenosine receptor A2a [5]
  Ki: 6060 nM
Adenosine receptor A1 [6]
  Ki: 98.3 nM
